Results: ChEMBL document CHEMBL4368890, “Progress toward allosteric ligands of metabotropic glutamate 7 (mGlu7) receptor: 2008-present” (Medchemcomm, 2019)
Each block holds one molecule with its values, some of them ahead of it.

Columns and labels:
[1] = molecular target: Metabotropic glutamate receptor 8 (Rattus norvegicus, UniProt P70579); assay: Agonist activity at rat mGlu8 receptor expressed in HEK cell co-expressing Galpha15 (unknown origin) assessed as […] intracellular Ca2+ mobilization by Fluo-4-AM dye based fluorescence assay; assay type: functional
[2] = molecular target: T1, Metabotropic glutamate receptor 3 (Homo sapiens, UniProt Q14832); assay: Allosteric activity at mGlu3 (unknown origin)
T1 sequence (Q14832 whole entry): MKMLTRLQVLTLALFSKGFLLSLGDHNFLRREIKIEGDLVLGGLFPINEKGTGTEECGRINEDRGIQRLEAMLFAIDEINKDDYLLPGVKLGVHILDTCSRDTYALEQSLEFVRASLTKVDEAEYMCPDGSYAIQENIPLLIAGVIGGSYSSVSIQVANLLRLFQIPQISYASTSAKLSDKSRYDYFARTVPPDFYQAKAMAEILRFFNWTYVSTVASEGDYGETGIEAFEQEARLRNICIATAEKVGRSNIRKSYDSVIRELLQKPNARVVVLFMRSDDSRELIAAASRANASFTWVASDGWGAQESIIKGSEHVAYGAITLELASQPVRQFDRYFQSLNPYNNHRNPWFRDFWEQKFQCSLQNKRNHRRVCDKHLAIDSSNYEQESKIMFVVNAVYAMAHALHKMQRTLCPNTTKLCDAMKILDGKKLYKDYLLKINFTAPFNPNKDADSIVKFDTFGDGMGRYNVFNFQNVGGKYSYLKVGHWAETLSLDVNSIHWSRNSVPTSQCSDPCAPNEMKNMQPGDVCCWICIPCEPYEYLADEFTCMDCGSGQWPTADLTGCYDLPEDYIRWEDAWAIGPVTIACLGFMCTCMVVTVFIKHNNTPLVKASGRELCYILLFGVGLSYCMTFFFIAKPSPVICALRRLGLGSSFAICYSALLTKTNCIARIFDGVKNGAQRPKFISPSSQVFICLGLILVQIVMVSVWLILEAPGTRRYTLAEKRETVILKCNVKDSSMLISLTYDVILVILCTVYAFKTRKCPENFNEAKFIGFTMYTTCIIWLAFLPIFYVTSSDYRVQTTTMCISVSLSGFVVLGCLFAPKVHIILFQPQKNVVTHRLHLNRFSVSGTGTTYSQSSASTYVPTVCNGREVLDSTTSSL

[3] = molecular target: T2, Metabotropic glutamate receptor 5 (Homo sapiens, UniProt P41594); assay: Allosteric activity at mGlu5 (unknown origin)
T2 sequence (P41594 whole entry): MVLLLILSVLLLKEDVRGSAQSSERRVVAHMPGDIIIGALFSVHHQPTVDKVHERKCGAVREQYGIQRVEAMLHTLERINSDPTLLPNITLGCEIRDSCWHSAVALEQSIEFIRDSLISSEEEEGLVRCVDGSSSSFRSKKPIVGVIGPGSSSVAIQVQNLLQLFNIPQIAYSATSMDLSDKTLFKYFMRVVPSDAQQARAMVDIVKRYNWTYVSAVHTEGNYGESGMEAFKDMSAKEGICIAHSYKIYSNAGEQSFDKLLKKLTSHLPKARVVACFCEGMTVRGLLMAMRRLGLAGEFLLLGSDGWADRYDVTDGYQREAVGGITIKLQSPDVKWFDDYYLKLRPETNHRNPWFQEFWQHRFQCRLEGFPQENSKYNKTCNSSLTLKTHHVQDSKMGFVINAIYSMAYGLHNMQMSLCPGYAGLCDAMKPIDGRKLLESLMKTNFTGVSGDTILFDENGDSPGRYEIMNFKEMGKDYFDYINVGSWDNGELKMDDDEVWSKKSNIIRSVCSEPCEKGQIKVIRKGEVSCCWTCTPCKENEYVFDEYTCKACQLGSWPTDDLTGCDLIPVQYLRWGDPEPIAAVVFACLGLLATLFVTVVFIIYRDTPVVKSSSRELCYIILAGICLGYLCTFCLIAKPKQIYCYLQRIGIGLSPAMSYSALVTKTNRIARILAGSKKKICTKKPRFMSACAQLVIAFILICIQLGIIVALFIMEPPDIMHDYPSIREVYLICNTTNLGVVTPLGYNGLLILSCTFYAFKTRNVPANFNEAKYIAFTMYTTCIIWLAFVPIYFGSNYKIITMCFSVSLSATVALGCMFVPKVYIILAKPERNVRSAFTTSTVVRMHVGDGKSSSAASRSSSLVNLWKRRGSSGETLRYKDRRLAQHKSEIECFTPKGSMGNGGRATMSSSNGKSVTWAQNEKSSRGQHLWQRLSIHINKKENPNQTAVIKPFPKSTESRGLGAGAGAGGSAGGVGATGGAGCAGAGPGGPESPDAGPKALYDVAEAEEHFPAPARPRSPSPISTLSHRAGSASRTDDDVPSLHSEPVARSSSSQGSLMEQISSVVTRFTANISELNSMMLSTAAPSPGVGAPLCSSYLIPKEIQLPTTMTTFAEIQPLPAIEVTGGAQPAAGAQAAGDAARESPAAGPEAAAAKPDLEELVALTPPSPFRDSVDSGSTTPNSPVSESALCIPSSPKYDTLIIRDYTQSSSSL

[4] = […], Kp in mouse at 10 mg/kg, ip after 1 hr; assay type: ADME, organism-based; settings: in vivo
[5] = molecular target: Metabotropic glutamate receptor 2 (Homo sapiens, UniProt Q14416); assay: Allosteric activity at mGlu2 (unknown origin)
Metabotropic glutamate receptor 2, sequence (Q14416 whole entry): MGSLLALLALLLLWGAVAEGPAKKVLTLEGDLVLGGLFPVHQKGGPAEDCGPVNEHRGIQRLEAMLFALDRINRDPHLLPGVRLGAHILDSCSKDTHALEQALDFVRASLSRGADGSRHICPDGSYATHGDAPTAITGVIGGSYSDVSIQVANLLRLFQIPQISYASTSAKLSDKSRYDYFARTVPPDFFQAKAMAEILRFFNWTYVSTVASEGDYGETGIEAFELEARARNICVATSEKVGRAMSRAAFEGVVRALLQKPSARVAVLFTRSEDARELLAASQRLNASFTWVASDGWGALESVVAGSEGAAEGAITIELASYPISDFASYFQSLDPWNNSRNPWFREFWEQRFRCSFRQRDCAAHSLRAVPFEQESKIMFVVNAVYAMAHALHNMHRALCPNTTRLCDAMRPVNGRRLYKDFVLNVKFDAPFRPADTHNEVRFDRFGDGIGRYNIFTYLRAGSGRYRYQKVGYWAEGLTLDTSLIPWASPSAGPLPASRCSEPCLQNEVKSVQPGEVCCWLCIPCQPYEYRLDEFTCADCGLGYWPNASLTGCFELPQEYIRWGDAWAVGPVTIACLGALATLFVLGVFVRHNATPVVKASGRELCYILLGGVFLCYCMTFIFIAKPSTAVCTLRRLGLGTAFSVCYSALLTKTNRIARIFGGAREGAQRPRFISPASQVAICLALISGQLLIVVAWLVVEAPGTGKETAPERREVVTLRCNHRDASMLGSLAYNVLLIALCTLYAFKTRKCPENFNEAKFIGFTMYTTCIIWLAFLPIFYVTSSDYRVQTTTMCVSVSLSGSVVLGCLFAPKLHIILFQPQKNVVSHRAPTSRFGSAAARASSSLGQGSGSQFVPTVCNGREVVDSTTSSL

[6] = molecular target: Metabotropic glutamate receptor 6 (Homo sapiens, UniProt O15303); assay: Allosteric activity at mGlu6 (unknown origin)
Metabotropic glutamate receptor 6, sequence (O15303 whole entry): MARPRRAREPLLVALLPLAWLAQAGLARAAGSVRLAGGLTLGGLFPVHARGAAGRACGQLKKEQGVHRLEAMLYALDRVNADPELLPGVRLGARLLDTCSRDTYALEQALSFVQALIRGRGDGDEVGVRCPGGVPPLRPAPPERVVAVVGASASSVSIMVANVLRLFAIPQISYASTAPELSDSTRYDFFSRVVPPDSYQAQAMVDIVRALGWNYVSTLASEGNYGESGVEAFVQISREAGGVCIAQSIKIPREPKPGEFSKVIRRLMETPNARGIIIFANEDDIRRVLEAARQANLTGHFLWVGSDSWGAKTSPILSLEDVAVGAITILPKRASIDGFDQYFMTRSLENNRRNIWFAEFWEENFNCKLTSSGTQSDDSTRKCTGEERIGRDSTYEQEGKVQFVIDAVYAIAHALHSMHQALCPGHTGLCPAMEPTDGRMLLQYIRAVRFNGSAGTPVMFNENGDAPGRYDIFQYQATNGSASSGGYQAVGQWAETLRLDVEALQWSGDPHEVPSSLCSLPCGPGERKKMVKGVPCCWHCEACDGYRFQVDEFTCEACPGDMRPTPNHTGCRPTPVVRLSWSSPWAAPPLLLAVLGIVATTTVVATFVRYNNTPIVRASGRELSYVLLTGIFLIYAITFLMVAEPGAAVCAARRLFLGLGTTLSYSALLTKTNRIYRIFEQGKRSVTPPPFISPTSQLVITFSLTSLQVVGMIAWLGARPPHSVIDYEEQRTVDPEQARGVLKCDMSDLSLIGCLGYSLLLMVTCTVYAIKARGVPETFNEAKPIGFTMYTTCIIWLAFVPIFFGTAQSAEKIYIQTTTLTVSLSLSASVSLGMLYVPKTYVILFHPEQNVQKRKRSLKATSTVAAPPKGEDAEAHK

[7] = molecular target: Metabotropic glutamate receptor 1 (Homo sapiens, UniProt Q13255); assay: Allosteric activity at mGlu1 (unknown origin)
[8] = molecular target: T3, Metabotropic glutamate receptor 7 (Homo sapiens, UniProt Q14831); assay: Allosteric agonist activity at human mGlu7 expressed in CHO cells assessed as reduction in forskolin-induced cAMP production after 30 mins by cAMP reagent-based assay relative to control; assay type: functional, cell-based
T3 sequence (Q14831 whole entry): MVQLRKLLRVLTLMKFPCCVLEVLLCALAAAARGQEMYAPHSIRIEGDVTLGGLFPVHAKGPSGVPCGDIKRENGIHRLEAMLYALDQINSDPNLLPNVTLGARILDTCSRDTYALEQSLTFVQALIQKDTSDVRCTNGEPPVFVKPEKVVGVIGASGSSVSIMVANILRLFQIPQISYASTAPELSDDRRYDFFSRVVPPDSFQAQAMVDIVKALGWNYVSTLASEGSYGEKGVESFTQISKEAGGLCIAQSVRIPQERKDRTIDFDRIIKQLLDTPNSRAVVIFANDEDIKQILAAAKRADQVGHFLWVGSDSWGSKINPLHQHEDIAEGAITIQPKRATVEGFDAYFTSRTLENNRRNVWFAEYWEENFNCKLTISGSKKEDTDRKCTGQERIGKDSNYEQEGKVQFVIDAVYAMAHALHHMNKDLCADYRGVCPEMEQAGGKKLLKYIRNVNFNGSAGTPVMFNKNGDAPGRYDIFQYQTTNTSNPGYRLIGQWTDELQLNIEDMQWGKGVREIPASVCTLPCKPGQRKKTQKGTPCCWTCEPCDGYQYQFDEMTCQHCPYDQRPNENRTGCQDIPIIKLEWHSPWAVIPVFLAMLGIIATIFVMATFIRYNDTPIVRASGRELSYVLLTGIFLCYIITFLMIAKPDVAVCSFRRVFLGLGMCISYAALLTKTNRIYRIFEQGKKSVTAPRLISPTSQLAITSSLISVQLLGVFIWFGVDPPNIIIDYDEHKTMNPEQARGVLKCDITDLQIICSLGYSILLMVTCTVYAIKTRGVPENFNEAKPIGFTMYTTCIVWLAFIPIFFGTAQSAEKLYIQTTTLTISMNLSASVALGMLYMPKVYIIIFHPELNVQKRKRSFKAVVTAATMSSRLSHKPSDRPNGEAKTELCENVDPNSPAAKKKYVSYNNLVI

[9] = molecular target: T3, Metabotropic glutamate receptor 7; assay: Allosteric agonist activity at human mGlu7 expressed in CHO cells assessed as reduction in forskolin-induced cAMP production after 30 mins by cAMP reagent-based assay; assay type: functional, cell-based
[10] = Lipophilicity, logP of the compound; assay type: physicochemical; settings: octanol/water
[11] = molecular target: T3, Metabotropic glutamate receptor 7; assay: Agonist activity at human mGlu7 expressed in CHO cells assessed as reduction in forskolin-induced cAMP production; assay type: functional, cell-based
[12] = molecular target: T2, Metabotropic glutamate receptor 5; assay: Allosteric agonist activity at human mGlu5 expressed in CHO cells assessed as reduction in forskolin-induced cAMP production after 30 mins by cAMP reagent-based assay; assay type: functional, cell-based
[13] = molecular target: T1, Metabotropic glutamate receptor 3; assay: Allosteric agonist activity at human mGlu3 expressed in CHO cells assessed as reduction in forskolin-induced cAMP production after 30 mins by cAMP reagent-based assay; assay type: functional, cell-based
[14] = molecular target: T3, Metabotropic glutamate receptor 7; assay: Agonist activity at human mGlu7
[15] = molecular target: Metabotropic glutamate receptor 7 (Mus musculus, UniProt Q68ED2); assay: Agonist activity at mouse mGlu7
Metabotropic glutamate receptor 7 (Mus musculus, UniProt Q68ED2), sequence (Q68ED2 whole entry): as the sequence (Q14831 whole entry) above, with R5G, A27V, S488T, A520P, D578N counted along it

[16] = molecular target: Metabotropic glutamate receptor 4 (Homo sapiens, UniProt Q14833); assay: Agonist activity at mGlu4 (unknown origin)
[17] = molecular target: T3, Metabotropic glutamate receptor 7; assay: Agonist activity at mGlu7 (unknown origin)
[18] = molecular target: T3, Metabotropic glutamate receptor 7; assay: Negative allosteric modulator activity at human mGlu7 assessed as reduction in Ca2+ mobilization by HTS assay; assay type: functional

- Emax [8]: 62%
- EC50 [9]: 158 nM
- logP [10]: 5.9
Structure (SMILES): c1ccc(C(NCCNC(c2ccccc2)c2ccccc2)c2ccccc2)cc1

- logP [10]: 3
Structure (SMILES): CNCC[C@H](NCC(=O)N1CCCc2ccccc21)c1ccccc1

- EC50 [11]: 1 nM
Structure (SMILES): O=C(C[C@H](NCC1CC1)c1ccccc1)N1CCCOc2ccccc21

- EC50 [12]: 631 nM
- pEC50 [13]: 6.2
Structure (SMILES): CNC(=O)N1CCCC(CN2CCC(OC(c3ccccc3)c3ccccc3)CC2)C1 (stereo not given)

- EC50 [17]: 1.21 nM
Structure (SMILES): C[C@H](C(=O)NC1COc2ccc(F)cc2C1O)c1ccccc1 (stereo not given in full)

More lines, now with the values behind:

Structure (SMILES): COC(=O)c1ccc(-n2c(C)cc(C(=O)CSc3ccc(NC(C)=O)cc3)c2C)cc1
- EC50 [1]: 930 nM

Structure (SMILES): COc1ccc(-c2c(C)nn3c(C(F)(F)F)cc(C)nc23)c(F)c1F
- EC50 [2]: > 10000 nM
- IC50 [2]: > 10000 nM
- EC50 [3]: > 10000 nM
- IC50 [3]: > 10000 nM
- Kp at 1 h [4]: 2.1
- EC50 [5]: > 10000 nM
- IC50 [5]: > 10000 nM
- EC50 [6]: > 10000 nM
- IC50 [6]: > 10000 nM
- EC50 [7]: > 10000 nM
- IC50 [7]: > 10000 nM

Structure (SMILES): C[C@H](C(=O)NC1COc2ccccc2C1S(C)(=O)=O)c1ccc(F)cc1 (stereo not given in full)
- EC50 [14]: 6.9 nM
- EC50 [15]: 1.8 nM

Structure (SMILES): CCc1nn2c(C(F)(F)F)cc(C)nc2c1-c1cc(F)c(OC)cc1F
- EC50 [16]: 2100 nM

Structure (SMILES): O=C(NCc1ccccc1F)C1c2ccccc2CC(=O)N1CC1CC1 (stereo not given)
- EC50 [17]: 29.2 nM

Structure (SMILES): CCc1nc2c(o1)CC(c1ccc(C)cc1C)CC2=O (stereo not given)
- IC50 [18]: 63 nM
